Consider ten molecules from US7425533B2, “Modified hirudin proteins and T-cell epitopes in hirudin” (Merck Patent GmbH, priority 2003, dated 2008).

Where “and” joins values, the source holds several entries; their conditions need not be identical. Equal entries are not always repeated.

One series concerns human PBMCs. Put plainly: T-cell epitope mapping, PBMC proliferation (tritiated thymidine) with 15 mer hirudin peptides. It counts as cell-based. Conditions: for donor response (SI>2): initial analysis, 25 donor samples, peptides at 1 μM and 10 μM, 7 days.
The conditions of series [1]: cited from earlier work.
A further series deals with PBMC from healthy donors. Description: time-course T-cell assay, PBMC proliferation with WT and variant peptides. Conditions: cohorts of 20 healthy donors, SI>2 at any time point, days 6, 7, 8 and 9. The series is classed as cell-based, human. An excerpt:
“Time course assay” refers to a biological assay such as a proliferation assay in which determinations of activity are made sequentially over a period of time. In the present context, a “time course T-cell assay”, refers to the determination of T-cell proliferation in response to a test immunogen (peptide) at multiple times following exposure to the test immunogen. The terms “time course T-cell assay” and “time course immunogenicity assay” may be used interchangeably herein.
Bulk cultures of 2-4×10^6 PBMC/well were established from 20 healthy donor samples in 24 well plates. Cells were incubated for 6 to 9 days with WT and variant peptides spanning the immunogenic regions (see Table 4). T cell proliferation was assessed by tritiated thymidine incorporation on days 6, 7, 8 and 9. Proliferation was assessed at each time point, by gently resuspending the bulk cultures and removing samples of PBMC, that were then incubated in triplicate wells of U-bottomed 96 well plate with 1 μCi/well tritiated thymidine for 18 hours as described above.
The time course assay was used to test variant peptides containing substitutions over WT. Substitutions were made at key locations where there was expectation that the substitution would prevent binding to MHC class II and therefore, subsequent T cell proliferation in the assay. FIG. 2 and FIG. 3 respectively show exemplary donor responses over the time course and overall response frequencies.

The target in the next series is serine protease thrombin (Homo sapiens, UniProt P00734). The conditions noted are these: native hirudin; cited from earlier work.
A further series has as its target T1, thrombin (Homo sapiens, UniProt P00734).
T1 construct: purchased Diagnostica Stago (via Axis Shield Diagnostics, Dundee, UK) Stachrom HCII assay kit (catalogue number not given)
Put plainly: chromogenic thrombin inhibition assay. It counts as biochemical. The conditions noted are these: chromogenic substrate H-D-Phe-Pep-Arg-pNA, 37° C., relative to WT hirudin. The text has this:
A “thrombin inhibition assay” according to the present context means an in vitro assay able to provide a reading of the functional capability of the test protein. In the present instance this means the ability of a given hirudin mutein to evoke a specific measurable chromogenic response. Particularly suitable assays are exemplified herein using thrombin and the chromogenic thrombin substrate H-D-Phe-Pep-Arg-pNA. Other assay formats can be contemplated to also provide quantitative estimations of specific activity of the test molecules and permit ED50 determinations. […]
The functional activity of the modified hirudin proteins was assessed using a chromogenic thrombin inhibition assay. […] The chromogenic substrate H-D-Phe-Pep-Arg-pNA is then added and any residual free thrombin present will cleave the substrate to form H-D-Phe-Pep-Arg-OH and pNA that can then be detected spectrophotometrically at 405 nm […]
The plate was warmed to 37° C. for 5 minutes followed by addition of 40 μl thrombin and incubated for 120 seconds at 37° C. with shaking. […] 40 μl acetic acid was added to quench reaction and the plate was read spectrophotometrically at 405 nm. Absorbance at 405 nm vs hirudin concentration was plotted using Sigma plot (Sigma Poole, UK) and IC50 values calculated by fitting a sigmoidal equation. […]

In the series on human PBMCs (across a total of 55 donor samples), “15: 15 mer hirudin peptide VTGEGTPKPESHNDG, SEQ ID NO: 101 (hirudo medicinalis) [Peptide 15]” returned a final response rate of 4%. In the series with human PBMCs, the “donor response (SI>2)” value was found to be 8%.
Turning to “[Leu^1, Thr^2]-63-desulphohirudin [lepirudin]”, in series [1] (among the severe anaphylaxis cases, previous treatment course 1 to 12 weeks earlier), the fatal outcomes is 4. Moreover, the “patients judged to have had severe anaphylaxis” value in series [1] (between 1994 and 2002, within minutes of intravenous administration) is 9 patients.
For “10: 15 mer hirudin peptide GNKCILGSDGEKNQC, SEQ ID NO: 96 (hirudo medicinalis) [Peptide 10]”, the “donor response (SI>2)” value in the series with human PBMCs is on record as 8%.
With “CAAGSDGEKNQCVTG (modified hirudin sequence)”, the “% donor response in time course” value with PBMC from healthy donors was 5%.
For “CRHGSDGEKNQCVTG (modified hirudin sequence)”, in the series with PBMC from healthy donors, the “% donor response in time course” value is reported as 5%.
On to “CILGSDGEKNQCVTG (hirudo medicinalis) [reference compound]”, for which, in the series on PBMC from healthy donors, the “% donor response in time course” value was determined as 25%.
Turning to Hirudin, the Ki at serine protease thrombin was 10^−11 to 10^−14 M.
In the case of “CEKGSDGEKNQCVTG (modified hirudin sequence)”, the “% donor response in time course” value in the series on PBMC from healthy donors worked out at 10%.

B1: M 25: hirudin mutein I29R L30R, SEQ ID NO: 28 (protein)
chain: VVYTDCTESGQNLCLCEGSVVCGQGNKCRRGSDGEKNQCVTGEGTPKPESHNDGDFEEIPEEYLQ
modifications: ends and bridges not checked
As for B1, the “Relative Activity (Ratio of variant IC50/WT IC50)” value with thrombin turned out to be 0.70.

B2: M 19: hirudin mutein I29E L30K, SEQ ID NO: 22 (protein)
chain: VVYTDCTESGQNLCLCEGSVVCGQGNKCEKGSDGEKNQCVTGEGTPKPESHNDGDFEEIPEEYLQ
modifications: ends and bridges not checked
In the case of B2, the “Relative Activity (Ratio of variant IC50/WT IC50)” value with thrombin was 1.0 and 0.55.
